As a reminder, the IC50 is the concentration that gives 50% inhibition. Lower therefore signals greater potency in that assay.

Results on 21 molecules are retold here after patent EP4722213A1, “NITROGEN-CONTAINING FUNCTIONAL GROUP-SUBSTITUTED PYRIDAZINOPYRIDONE DERIVATIVE AND USE THEREOF” (Sichuan Huiyu Pharmaceutical Co., Ltd., priority 2023, dated 2024).

Structures are written as SMILES. Structures can show the parent of a compound that is named as a salt.

This assay deals with T1, SOS1 (Homo sapiens, UniProt Q07889).
T1 sequence (Q07889 1-1333): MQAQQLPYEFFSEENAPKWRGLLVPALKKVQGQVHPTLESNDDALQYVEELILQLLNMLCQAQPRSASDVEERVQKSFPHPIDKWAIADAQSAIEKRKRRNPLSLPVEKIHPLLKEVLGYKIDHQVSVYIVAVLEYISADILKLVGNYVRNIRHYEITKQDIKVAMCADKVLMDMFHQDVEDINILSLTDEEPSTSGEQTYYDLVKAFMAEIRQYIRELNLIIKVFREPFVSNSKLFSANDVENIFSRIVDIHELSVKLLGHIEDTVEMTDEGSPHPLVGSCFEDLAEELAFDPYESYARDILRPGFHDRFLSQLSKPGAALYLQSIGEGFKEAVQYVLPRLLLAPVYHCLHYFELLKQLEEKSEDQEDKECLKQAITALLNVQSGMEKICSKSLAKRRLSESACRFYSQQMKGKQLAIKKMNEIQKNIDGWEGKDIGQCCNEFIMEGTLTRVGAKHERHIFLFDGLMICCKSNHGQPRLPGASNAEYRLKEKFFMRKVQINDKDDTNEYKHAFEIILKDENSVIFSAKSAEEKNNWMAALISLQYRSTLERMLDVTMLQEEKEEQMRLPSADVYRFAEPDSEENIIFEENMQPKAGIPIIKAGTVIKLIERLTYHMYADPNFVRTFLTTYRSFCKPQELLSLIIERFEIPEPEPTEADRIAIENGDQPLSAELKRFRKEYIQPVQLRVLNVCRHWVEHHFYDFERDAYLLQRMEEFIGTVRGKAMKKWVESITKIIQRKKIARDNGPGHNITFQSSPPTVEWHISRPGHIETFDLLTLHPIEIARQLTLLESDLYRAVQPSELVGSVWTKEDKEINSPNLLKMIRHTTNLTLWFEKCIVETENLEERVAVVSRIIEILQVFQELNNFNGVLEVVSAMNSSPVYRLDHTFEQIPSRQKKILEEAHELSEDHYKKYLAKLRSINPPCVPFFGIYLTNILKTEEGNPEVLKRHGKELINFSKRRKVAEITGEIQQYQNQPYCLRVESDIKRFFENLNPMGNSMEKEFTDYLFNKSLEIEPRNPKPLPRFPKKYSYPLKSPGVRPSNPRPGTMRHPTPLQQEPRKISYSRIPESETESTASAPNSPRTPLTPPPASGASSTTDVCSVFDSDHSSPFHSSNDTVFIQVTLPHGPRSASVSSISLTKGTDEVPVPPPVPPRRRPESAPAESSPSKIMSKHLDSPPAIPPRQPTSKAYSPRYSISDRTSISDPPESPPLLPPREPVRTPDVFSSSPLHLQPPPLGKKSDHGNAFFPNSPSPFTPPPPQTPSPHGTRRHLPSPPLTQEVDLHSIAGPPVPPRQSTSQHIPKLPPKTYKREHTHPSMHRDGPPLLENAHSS
Description: biochemical.
As to `Cc1c([C@@H](C)Nc2nnc(N3CCN(C4CC4)CC3)c3cc(=O)n(C4(C)CC4)cc23)cccc1C(F)(F)F` [Example 92, (R)-1-(4-cyclopropylpiperazin-1-yl)-4-((1-(2-methyl-3-(trifluoromethyl)phenyl)ethyl)amino)-6-(1-methylcyclopropyl) pyrido[3,4-d]pyridazin-7(6H)-one], the midpoint of inhibition, the IC50, lay at 10.2 nM.

`Cc1c([C@@H](C)Nc2nnc(N3CCN(CC4CC4)CC3)c3cc(=O)n(C4(C)CC4)cc23)cccc1C(F)(F)F` [Example 93, (R)-1-(4-(cyclopropylmethyl)piperazin-1-yl)-4-((1-(2-methyl-3-(trifluoromethyl)phenyl)ethyl)amino)-6-(1-methylcyclopropyl) pyrido[3,4-d]pyridazin-7(6H)-one] registered an IC50 of 5.4 nM.

The molecule `Cc1c([C@@H](C)Nc2nnc(N3CCN(C4CCC4)CC3)c3cc(=O)n(C4(C)CC4)cc23)cccc1C(F)(F)F` [Example 94, (R)-1-(4-cyclobutylpiperazin-1-yl)-4-((1-(2-methyl-3-(trifluoromethyl)phenyl)ethyl)amino)-6-(1-methylcyclopropyl) pyrido[3,4-d]pyridazin-7(6H)-one] had an IC50 of 7.3 nM.

Consider `Cc1c([C@@H](C)Nc2nnc(N3CCN(C(C)(C)C)CC3)c3cc(=O)n(C4(C)CC4)cc23)cccc1C(F)(F)F` [Example 95, (R)-1-(4-(tert-butyl)piperazin-1-yl)-4-((1-(2-methyl-3-(trifluoromethyl)phenyl)ethyl)amino)-6-(1-methylcyclopropyl) pyrido[3,4-d]pyridazin-7(6H)-one], for which the IC50 stood at 6.8 nM.

For `Cc1c([C@@H](C)Nc2nnc(N3CCN(C4CCCC4)CC3)c3cc(=O)n(C4(C)CC4)cc23)cccc1C(F)(F)F` [Example 96, (R)-1-(4-cyclopentylpiperazin-1-yl)-4-((1-(2-methyl-3-(trifluoromethyl)phenyl)ethyl)amino)-6-(1-methylcyclopropyl) pyrido[3,4-d]pyridazin-7(6H)-one], the IC50 came out at 7.4 nM.

`Cc1c(C#N)cccc1[C@@H](C)Nc1nnc(N2CCN(C3CC3)CC2)c2cc(=O)n(C3CC3)cc12` [Example 99, (R)-3-(1-((6-cyclopropyl-1-(4-cyclopropylpiperazin-1-yl)-7-oxo-6,7-dihydropyrido[3,4-d]pyridazin-4-yl)amino)ethyl)-2-methylbenzonitrile] came in with an IC50 of 11.3 nM.

In turn, `Cc1c(C#N)cccc1[C@@H](C)Nc1nnc(N2CCN(C3CCC3)CC2)c2cc(=O)n(C3CC3)cc12` [Example 100, (R)-3-(1-((1-(4-cyclobutylpiperazin-1-yl)-6-cyclopropyl-7-oxo-6,7-dihydropyrido[3,4-d]pyridazin-4-yl)amino)ethyl)-2-methylbenzonitrile] yielded a 50% inhibitory concentration (IC50) of 10.9 nM.

For the molecule `Cc1c(C#N)cccc1[C@@H](C)Nc1nnc(N2CCN(C3CCCC3)CC2)c2cc(=O)n(C3CC3)cc12` [Example 101, (R)-3-(1-((1-(4-cyclopentylpiperazin-1-yl)-6-cyclopropyl-7-oxo-6,7-dihydropyrido[3,4-d]pyridazin-4-yl)amino)ethyl)-2-methylbenzonitrile], the IC50 is 8.9 nM.

The molecule `Cc1c(C#N)cccc1[C@@H](C)Nc1nnc(N2CCN(CC3CC3)CC2)c2cc(=O)n(C3CC3)cc12` [Example 102, (R)-3-(1-((6-cyclopropyl-1-(4-(cyclopropylmethyl)piperazin-1-yl)-7-oxo-6,7-dihydropyrido[3,4-d]pyridazin-4-yl)amino)ethyl)-2-methylbenzonitrile] had an IC50 of 12.5 nM.

As to `C[C@@H](Nc1nnc(N2CCN(C3CC3)CC2)c2cc(=O)n(C3CC(F)(F)C3)cc12)c1cccc(C(F)F)c1F` [Example 103, (R)-6-(3,3-difluorocyclobutyl)-4-((1-(3-(difluoromethyl)-2-fluorophenyl)ethyl)amino)-1-(4-cyclopropylpiperazin-1-yl)pyrido[3,4-d]pyridazin-7(6H)-one], the IC50 was found to be 5.9 nM.

`C[C@@H](Nc1nnc(N2CCN(C3CCCC3)CC2)c2cc(=O)n(C3CC(F)(F)C3)cc12)c1cccc(C(F)F)c1F` [Example 106, (R)-6-(3,3-difluorocyclobutyl)-4-((1-(3-(difluoromethyl)-2-fluorophenyl)ethyl)amino)-1-(4-cyclopentylpiperazin-1-yl)pyrido[3,4-d]pyridazin-7(6H)-one] yielded an IC50 of 5.2 nM.

Consider `C[C@@H](Nc1nnc(N2CCN(CC3CC3)CC2)c2cc(=O)n(C3CC(F)(F)C3)cc12)c1cccc(C(F)F)c1F` [Example 107, (R)-6-(3,3-difluorocyclobutyl)-4-((1-(3-(difluoromethyl)-2-fluorophenyl)ethyl)amino)-1-(4-(cyclopropylmethyl)piperazin-1-yl)pyrido[3,4-d]pyridazin-7(6H)-one], for which the IC50 came out at 4.2 nM.

On to `CC(C)n1cc2c(N[C@H](C)c3cccc(C(F)F)c3F)nnc(N3CCN(C)CC3)c2cc1=O` [Example 114, (R)-4-((1-(3-(difluoromethyl)-2-fluorophenyl)ethyl)amino)-6-isopropyl-1-(4-methylpiperazin-1-yl)pyrido[3,4-d]pyridazin-7(6H)-one formate], for which the IC50 amounted to 6 nM.

With `C[C@@H](Nc1nnc(NC2COC2)c2cc(=O)n(C3(C)CC3)cc12)c1cccc(C(F)F)c1F` [Example 115, (R)-4-((1-(3-(difluoromethyl)-2-fluorophenyl)ethyl)amino)-6-(1-methylcyclopropyl)-1-(oxetan-3-ylamino)pyrido[3,4-d]pyridazin-7(6H)-one], it took 4.1 nM to reach half-maximal inhibition (IC50).

For the molecule `CCn1cc2c(N[C@H](C)c3cccc(C(F)F)c3F)nnc(N3CCN(C)CC3)c2cc1=O` [Example 116, (R)-4-((1-(3-(difluoromethyl)-2-fluorophenyl)ethyl)amino)-6-ethyl-1-(4-methylpiperazin-1-yl)pyrido[3,4-d]pyridazin-7(6H)-one], the IC50 came to 6.6 nM.

Turning to `CCN1CCN(c2nnc(N[C@H](C)c3cccc(C(F)F)c3F)c3cn(CC)c(=O)cc23)CC1` [Example 117, (R)-4-((1-(3-(difluoromethyl)-2-fluorophenyl)ethyl)amino)-6-ethyl-1-(4-ethylpiperazin-1-yl)pyrido[3,4-d]pyridazin-7(6H)-one], the IC50 turned out to be 8.2 nM.

`CCn1cc2c(N[C@H](C)c3cccc(C(F)F)c3F)nnc(N3CCN(C(C)C)CC3)c2cc1=O` [Example 118, (R)-4-((1-(3-(difluoromethyl)-2-fluorophenyl)ethyl)amino)-6-ethyl-1-(4-isopropylpiperazin-1-yl)pyrido[3,4-d]pyridazin-7(6H)-one] showed an IC50 of 8.4 nM.

`CCN(C)c1nnc(N[C@H](C)c2cccc(C(F)F)c2F)c2cn(C3(C)CC3)c(=O)cc12` [Example 122, (R)-4-((1-(3-(difluoromethyl)-2-fluorophenyl)ethyl)amino)-1-(ethyl(methyl)amino)-6-(1-methylcyclopropyl) pyrido[3,4-d]pyridazin-7(6H)-one] came in with an IC50 of 10.6 nM.

The molecule `C[C@@H](Nc1nnc(NC2CCN(C)CC2)c2cc(=O)n(C3(C)CC3)cc12)c1cccc(C(F)F)c1F` [Example 123, (R)-4-((1-(3-(difluoromethyl)-2-fluorophenyl)ethyl)amino)-6-(1-methylcyclopropyl)-1-((1-methylpiperidin-4-yl)amino)pyrido[3,4-d]pyridazin-7(6H)-one formate] registered an IC50 of 3.8 nM.

The molecule `C[C@@H](Nc1nnc(N(C)CCN(C)C)c2cc(=O)n(C3(C)CC3)cc12)c1cccc(C(F)F)c1F` [Example 124, (R)-4-((1-(3-(difluoromethyl)-2-fluorophenyl)ethyl)amino)-1-((2-(dimethylamino)ethyl)(methyl)amino)-6-(1-methylcyclopropyl) pyrido[3,4-d]pyridazin-7(6H)-one formate] registered an IC50 of 5.8 nM.

With `C[C@@H](Nc1nnc(NC23CC(C2)C3)c2cc(=O)n(C3(C)CC3)cc12)c1cccc(C(F)F)c1F` [Example 125, (R)-1-(bicyclo[1.1.1]pentan-1-ylamino)-4-((1-(3-(difluoromethyl)-2-fluorophenyl)ethyl)amino)-6-(1-methylcyclopropyl) pyrido[3,4-d]pyridazin-7(6H)-one], half-maximal inhibition (IC50) required 14.1 nM.
